The target of one assay is T1, human PPARα (Homo sapiens, UniProt Q07869).
T1 construct: expressed in transfected cells
T1 sequence (Q07869 167-468): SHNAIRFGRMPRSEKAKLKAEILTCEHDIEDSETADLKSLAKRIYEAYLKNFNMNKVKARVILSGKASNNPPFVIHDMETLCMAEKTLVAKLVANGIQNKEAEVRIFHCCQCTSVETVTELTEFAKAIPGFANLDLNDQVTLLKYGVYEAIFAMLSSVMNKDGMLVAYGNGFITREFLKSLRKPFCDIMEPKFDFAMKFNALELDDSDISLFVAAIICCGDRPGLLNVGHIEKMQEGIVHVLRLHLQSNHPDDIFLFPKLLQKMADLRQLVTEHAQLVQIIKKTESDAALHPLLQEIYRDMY
Briefly: Human PPARα transactivation assay (Gal4/PPAR-LBD, luciferase reporter). The format is cell-based. An excerpt: In order to examine the activity of Compound CW on PPARα, a transactivation assay was used. Transactivation assays take advantage of the modular domain structure of nuclear receptors. A fusion protein was made between the human or mouse PPAR ligand binding domain (PPAR-LBD) and the yeast Gal4 DNA binding domain (“activator plasmid”). The reporter gene construct consisted of the Gal4 DNA binding element in cis with a luciferase reporter. When an agonist binds the Gal4/PPAR-LBD, the fusion protein binds the Gal4 DNA binding element on the reporter gene resulting in transcription of the firefly luciferase gene. Luciferase oxidizes the substrate luciferin in an ATP-dependent reaction; the amount of light given off is a direct measure of the level of the enzyme and, consequently, of the activity of the ligand binding the PPAR-LBD.
The activator expressing plasmids contained a yeast GAL4 DNA-binding domain fused to the human PPARα ligand binding and hinge domains (a.a. 167-468). The reporter plasmid used was pFRLuc, which has the firefly luciferase gene under the control of a GAL4 UAS containing promoter (Stratagene (La Jolla, Calif.)).
One day prior to transfection, cells were seeded in 24-well plates at a density of 5×10^4-2×10^5 cells/well, depending upon the cell type. Cells were transfected using Lipofectamine 2000 reagent (Invitrogen (Calsbad, Calif.)). […]
(In a reporter assay the amount or activity of a reporter protein is the signal.)

The test system of the next assay is db/db mice. Briefly: Antidiabetic effects in db/db mouse model of type II diabetes (serum chemistry after 2 weeks daily oral dosing). It is filed as in vivo. An excerpt:
db/db mice have a defect in leptin signaling, leading to hyperphagia, obesity and diabetes. Moreover, unlike ob/ob mice on a C57BL/6J background, db/db mice on a C57BLKS background undergo failure of their insulin-producing pancreatic islet cells, resulting in progression from hyperinsulinemia (associated with peripheral insulin resistance) to hypoinsulinemic diabetes.
Male obese (db/db homozygote) C57BL/Ksola mice approximately 8 weeks of age, were obtained from Jackson Labs (Bar Harbor, Me.) and randomly assigned into groups of 5-7 animals such that the body weights (40-45 g) and serum glucose levels (≧300 mg/dl in fed state) were similar between groups; male lean (db/+ heterozygote) mice served as cohort controls. A minimum of 7 days was allowed for adaptation after arrival. All animals were maintained under controlled temperature (23° C.), relative humidity (50±5%) and light (7:00-19:00), and allowed free access to standard chow (Formulab Diet 5008, Quality Lab Products, Elkridge, Md.) and water.
Mice received daily oral doses of vehicle or Compound CW for 2 weeks. At the end of the treatment period 100 μl of venous blood was withdrawn in a heparinized capillary tube from the retro-orbital sinus for serum chemistry analysis. Mice were in the fed state at the time of blood sampling.

Where [1] appears, read: after 2 weeks of daily oral dosing.

Consider `Cc1cccc(C)c1COc1cccc(C(C)C(=O)O)c1` (racemic) [Compound CW, 2-(3-(2,6-Dimethylbenzyloxy)-phenyl)-2-(R,S)-methylacetic acid], for which, on human PPARα (Gal4/human PPARα-LBD luciferase transactivation, 24 hours treatment, FIG. 1), the “Activity on human PPARα (type of agonism)” value is listed as “partial agonist”. Also, the “Glucose (serum glucose)” value in the assay with db/db mice (100 mg/kg daily oral, 2 weeks, fed state, vehicle control 735 ± 66) turned out to be 171 ± 66 mg/dL. In the assay on db/db mice (setting [1]), the “Effect on blood glucose” value was “significant reduction” and the “Effect on serum triglycerides” value is “reduced”. The “Triglycerides ± SEM (serum triglycerides)” value in the assay with db/db mice (daily oral dosing 2 weeks, fed state, vehicle 221 ± 62) is 109 ± 13 mg/dL.
In the case of `Cc1cccc(Nc2cc(Cl)nc(SCC(=O)O)n2)c1C` [Wy-14,643, reference compound], the “Maximal activity in transactivation assay” value on human PPARα (positive control, same experiment) is listed as ~40,000 RLU.
